Tests used:
Format in all cases: cell-based
[1] = target: T1, mPiezo1 (Mus musculus, UniProt E2JF22); test: FLIPR calcium influx (Fluo3), transfected HEK293T, 384-well; conditions: agonist; pH 7.4, HBSS with 1.26 mM CaCl2; unreliable (compound insolubility above ~20 μM)
T1 construct: gene Piezo1; full-length cDNA transiently transfected in HEK293T (mPiezo1-IRES GFP for imaging and patch clamp); for bilayers purified protein as in Coste et al. 2012

[2] = target: T2, hPiezo1 (Homo sapiens, UniProt Q92508); test: as above; conditions: agonist; pH 7.4, HBSS with 1.26 mM CaCl2; unreliable (compound insolubility above ~20 μM)
T2 construct: gene PIEZO1; cDNA transiently transfected in HEK293T cells
T2 sequence (Q92508 whole entry): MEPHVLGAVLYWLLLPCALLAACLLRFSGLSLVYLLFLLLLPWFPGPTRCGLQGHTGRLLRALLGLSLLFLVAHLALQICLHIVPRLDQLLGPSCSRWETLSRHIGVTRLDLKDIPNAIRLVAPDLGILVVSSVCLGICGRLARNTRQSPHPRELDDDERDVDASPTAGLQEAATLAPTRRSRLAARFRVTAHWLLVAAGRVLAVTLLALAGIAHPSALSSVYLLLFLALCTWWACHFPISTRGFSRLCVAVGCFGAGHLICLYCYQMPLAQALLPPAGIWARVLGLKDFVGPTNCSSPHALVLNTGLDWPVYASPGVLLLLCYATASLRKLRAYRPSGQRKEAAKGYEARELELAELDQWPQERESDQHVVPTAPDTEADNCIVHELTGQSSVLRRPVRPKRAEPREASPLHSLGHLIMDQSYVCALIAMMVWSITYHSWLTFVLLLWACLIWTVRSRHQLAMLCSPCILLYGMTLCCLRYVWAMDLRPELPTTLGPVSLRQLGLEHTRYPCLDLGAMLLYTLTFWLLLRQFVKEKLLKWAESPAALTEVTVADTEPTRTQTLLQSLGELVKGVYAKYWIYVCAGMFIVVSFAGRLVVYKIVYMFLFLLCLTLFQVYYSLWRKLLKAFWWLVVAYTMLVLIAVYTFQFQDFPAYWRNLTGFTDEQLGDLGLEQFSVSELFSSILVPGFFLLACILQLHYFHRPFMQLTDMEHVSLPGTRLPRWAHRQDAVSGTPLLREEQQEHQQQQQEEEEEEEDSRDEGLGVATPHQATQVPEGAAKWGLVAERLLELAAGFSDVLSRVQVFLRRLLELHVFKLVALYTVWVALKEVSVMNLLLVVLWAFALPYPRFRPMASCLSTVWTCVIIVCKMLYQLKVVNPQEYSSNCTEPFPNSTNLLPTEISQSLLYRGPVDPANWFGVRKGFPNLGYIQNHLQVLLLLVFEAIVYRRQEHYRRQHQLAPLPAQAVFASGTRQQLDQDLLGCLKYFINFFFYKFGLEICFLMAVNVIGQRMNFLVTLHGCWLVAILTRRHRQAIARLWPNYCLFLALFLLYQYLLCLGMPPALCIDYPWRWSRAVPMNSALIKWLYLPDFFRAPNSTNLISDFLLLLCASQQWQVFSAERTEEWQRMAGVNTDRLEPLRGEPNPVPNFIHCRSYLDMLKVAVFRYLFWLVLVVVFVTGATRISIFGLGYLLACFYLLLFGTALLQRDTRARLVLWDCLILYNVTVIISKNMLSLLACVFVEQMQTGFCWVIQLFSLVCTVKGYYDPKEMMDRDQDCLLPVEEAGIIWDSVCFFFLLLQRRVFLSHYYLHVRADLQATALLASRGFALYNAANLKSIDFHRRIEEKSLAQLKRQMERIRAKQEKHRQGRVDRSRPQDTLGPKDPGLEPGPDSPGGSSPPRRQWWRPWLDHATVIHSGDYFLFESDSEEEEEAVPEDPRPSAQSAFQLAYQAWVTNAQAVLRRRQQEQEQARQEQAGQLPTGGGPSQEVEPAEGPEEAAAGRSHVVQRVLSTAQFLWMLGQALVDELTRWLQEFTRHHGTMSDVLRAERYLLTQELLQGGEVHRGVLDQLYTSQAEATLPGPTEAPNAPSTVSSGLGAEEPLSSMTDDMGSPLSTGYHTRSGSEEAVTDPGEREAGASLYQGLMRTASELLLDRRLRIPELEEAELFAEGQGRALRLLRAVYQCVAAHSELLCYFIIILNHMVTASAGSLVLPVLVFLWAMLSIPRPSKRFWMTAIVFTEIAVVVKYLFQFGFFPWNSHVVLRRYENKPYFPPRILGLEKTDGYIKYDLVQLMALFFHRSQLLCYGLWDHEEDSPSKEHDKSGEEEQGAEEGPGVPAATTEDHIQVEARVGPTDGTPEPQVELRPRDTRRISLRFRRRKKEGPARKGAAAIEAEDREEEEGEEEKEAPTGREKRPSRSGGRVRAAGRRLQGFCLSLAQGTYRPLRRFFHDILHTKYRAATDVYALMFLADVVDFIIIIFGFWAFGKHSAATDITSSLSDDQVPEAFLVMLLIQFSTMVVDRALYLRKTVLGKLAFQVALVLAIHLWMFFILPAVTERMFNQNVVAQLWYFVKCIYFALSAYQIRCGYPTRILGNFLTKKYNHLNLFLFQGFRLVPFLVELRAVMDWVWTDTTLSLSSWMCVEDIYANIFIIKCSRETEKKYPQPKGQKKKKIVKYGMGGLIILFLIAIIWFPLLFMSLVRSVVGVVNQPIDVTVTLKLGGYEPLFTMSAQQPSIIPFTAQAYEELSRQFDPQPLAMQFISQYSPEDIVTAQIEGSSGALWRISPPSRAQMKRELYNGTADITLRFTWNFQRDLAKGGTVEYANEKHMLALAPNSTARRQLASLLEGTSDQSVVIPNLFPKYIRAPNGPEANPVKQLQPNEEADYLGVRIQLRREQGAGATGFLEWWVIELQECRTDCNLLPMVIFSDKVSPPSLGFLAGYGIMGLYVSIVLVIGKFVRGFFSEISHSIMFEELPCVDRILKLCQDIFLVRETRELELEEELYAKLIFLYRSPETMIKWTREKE

[3] = target: T3, mPiezo2 (Mus musculus, UniProt Q8CD54); test: whole-cell patch clamp of mechanically activated currents, transfected HEK293T; conditions: 10 μM Yoda1, up to 5 min, -80 mV; selectivity control
T3 construct: gene Piezo2; cDNA transiently transfected in HEK293T cells

T1 sequence (E2JF22 whole entry): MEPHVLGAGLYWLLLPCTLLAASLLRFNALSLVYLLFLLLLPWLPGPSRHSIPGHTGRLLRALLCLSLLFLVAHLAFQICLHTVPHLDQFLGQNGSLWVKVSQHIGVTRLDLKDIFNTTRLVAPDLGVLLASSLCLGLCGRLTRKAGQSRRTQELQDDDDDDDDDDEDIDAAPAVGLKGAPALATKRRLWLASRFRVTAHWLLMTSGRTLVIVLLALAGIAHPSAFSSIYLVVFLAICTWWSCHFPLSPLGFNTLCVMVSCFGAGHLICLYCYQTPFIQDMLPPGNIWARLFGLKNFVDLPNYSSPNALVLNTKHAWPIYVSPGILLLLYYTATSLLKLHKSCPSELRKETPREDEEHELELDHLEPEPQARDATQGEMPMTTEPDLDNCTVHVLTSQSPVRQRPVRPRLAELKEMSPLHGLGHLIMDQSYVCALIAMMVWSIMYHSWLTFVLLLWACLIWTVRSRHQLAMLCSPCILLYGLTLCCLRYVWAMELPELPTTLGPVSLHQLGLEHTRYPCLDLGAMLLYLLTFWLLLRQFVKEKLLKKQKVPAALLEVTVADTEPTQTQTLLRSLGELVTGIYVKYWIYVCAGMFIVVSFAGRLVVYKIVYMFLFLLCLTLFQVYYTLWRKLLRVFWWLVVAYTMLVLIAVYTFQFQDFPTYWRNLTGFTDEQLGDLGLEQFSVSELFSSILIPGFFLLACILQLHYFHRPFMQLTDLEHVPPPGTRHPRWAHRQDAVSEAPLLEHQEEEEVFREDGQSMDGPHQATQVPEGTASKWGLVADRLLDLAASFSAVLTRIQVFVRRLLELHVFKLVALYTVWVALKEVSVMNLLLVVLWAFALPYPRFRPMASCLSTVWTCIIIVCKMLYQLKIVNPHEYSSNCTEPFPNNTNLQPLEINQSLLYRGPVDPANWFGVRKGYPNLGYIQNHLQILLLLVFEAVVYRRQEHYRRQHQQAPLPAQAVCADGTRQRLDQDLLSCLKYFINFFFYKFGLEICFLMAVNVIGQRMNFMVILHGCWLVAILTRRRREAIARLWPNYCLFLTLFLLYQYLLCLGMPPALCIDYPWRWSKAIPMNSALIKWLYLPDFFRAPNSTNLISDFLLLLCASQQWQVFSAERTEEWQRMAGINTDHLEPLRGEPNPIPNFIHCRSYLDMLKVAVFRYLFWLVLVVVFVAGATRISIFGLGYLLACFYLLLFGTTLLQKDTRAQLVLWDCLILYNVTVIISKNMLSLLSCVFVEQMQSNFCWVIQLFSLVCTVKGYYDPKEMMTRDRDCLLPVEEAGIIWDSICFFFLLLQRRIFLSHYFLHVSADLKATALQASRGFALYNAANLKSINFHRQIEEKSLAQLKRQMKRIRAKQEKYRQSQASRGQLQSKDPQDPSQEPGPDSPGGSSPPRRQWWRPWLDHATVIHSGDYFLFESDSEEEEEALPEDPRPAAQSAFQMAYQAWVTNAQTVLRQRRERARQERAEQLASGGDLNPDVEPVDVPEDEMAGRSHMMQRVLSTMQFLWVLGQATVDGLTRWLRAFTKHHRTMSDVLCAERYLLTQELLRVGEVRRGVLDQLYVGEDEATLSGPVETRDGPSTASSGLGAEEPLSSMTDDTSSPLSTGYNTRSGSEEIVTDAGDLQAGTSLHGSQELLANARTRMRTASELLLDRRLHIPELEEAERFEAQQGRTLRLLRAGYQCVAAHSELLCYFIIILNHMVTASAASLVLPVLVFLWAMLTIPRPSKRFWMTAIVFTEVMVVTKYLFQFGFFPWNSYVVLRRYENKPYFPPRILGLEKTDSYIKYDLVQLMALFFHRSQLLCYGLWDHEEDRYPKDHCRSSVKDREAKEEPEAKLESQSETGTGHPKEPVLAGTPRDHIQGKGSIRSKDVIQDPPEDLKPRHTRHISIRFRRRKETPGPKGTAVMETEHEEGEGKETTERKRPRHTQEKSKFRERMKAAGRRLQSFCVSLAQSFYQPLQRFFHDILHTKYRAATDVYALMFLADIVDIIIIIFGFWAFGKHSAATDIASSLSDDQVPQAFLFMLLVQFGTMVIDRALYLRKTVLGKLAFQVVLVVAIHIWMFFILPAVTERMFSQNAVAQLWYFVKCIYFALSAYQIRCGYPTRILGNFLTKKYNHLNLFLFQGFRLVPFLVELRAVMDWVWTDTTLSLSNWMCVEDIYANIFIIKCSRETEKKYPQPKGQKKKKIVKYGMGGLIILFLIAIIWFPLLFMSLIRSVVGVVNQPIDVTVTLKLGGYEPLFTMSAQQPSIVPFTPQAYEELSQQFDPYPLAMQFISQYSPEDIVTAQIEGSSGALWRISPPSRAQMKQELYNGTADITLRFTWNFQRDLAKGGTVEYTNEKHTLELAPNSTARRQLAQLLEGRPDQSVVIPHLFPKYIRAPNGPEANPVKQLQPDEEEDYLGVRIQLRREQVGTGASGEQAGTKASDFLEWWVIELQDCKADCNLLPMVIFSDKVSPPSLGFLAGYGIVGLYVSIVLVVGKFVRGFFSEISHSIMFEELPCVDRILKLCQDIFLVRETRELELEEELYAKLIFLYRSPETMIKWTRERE

## Clc1cccc(Cl)c1CSc1nnc(-c2cnccn2)s1 [Yoda1]
[1]
  apparent EC50: 17.1 (95% CI 13.4 to 21.9) μM
[2]
  apparent EC50: 26.6 (95% CI 20.6 to 34.4) μM
[3]
  whole-cell patch clamp of mechanically activated currents, transfected HEK293T: No effect was observed upon Yoda1 exposure
